For this test, the system named is calcium channel (e.g., L-type, N-type, etc.). The test can be described thus: HEK assay, whole-cell patch clamp of transiently transfected HEK-293T/17 cells. Type of test: cell-based. The settings on record: whole-cell voltage clamp, holding potential −100 mV. The protocol:
HEK-293T/17 cells are transiently transfected in a similar manner as described in FuGENE 6 Package Insert Version 7, April 2002, Roche Applied Science, Indianapolis, Ind. The cells are plated at 2.5×10^5 cells in 2 mL in a 6-well plate in incubator for one night and achieve a 30˜40% confluence. In a small sterile tube, add sufficient serum-free medium as diluent for FuGENE Transfection Reagent (Roche Applied Science, Indianapolis, Ind.), to a total volume of 100 μL. Add 3 μL of FuGENE 6 Reagent directly into this medium. The mixture is tapped gently to mix. 2 μg of DNA solution (0.8-2.0 μg/μL) is added to the prediluted FuGENE 6 Reagent from above. The DNA/Fugene 6 mixture is gently pipeted to mix the contents and incubated for about 15 minutes at room temperature. The complex mixture is then added to the HEK-293T/17 cells, distributing it around the well, and swirled to ensure even dispersal. The cells are returned to the incubator for 24 hrs. The transfected cells are then replated at density 2.5×10^5 in a 35 mm dish with 5 glass coverslips and grow in low serum (1%) media for 24 hrs. Coverslips with isolated cells are then transferred into chamber and calcium channel (e.g., L-type, N-type, etc.) current or other currents for counter screening are recorded from the transiently transfected HEK-293T/17 cells. […]

For the compound `CN(Cc1nc(CNc2ccc(F)cc2)cn1-c1ccc(Cl)cc1)c1ccc(F)cc1` [Compound 5], the IC50 was found to be 0.135 µM.

For `CN(Cc1nc(CN2CCCC2)cn1-c1ccc(Cl)cc1)c1ccc(F)cc1` [Compound 6], the IC50 was 2.69 µM.
